In patent publication US7265130B2, “NPY Y5 antagonist” (Shionogi & Co., Ltd., priority 1999, dated 2007):

Columns and labels:
human NPY Y5 receptor [1] = target: T1, human NPY Y5 receptor (Homo sapiens, UniProt Q15761); assay: cAMP production inhibitory activity in CHO cells; format: cell-based; settings: against 50 nM NPY inhibition of forskolin stimulated cAMP, CHO cells expressing human NPY Y5 receptor
T1 construct: expressed in transfected cells
T1 sequence (Q15761 1-445): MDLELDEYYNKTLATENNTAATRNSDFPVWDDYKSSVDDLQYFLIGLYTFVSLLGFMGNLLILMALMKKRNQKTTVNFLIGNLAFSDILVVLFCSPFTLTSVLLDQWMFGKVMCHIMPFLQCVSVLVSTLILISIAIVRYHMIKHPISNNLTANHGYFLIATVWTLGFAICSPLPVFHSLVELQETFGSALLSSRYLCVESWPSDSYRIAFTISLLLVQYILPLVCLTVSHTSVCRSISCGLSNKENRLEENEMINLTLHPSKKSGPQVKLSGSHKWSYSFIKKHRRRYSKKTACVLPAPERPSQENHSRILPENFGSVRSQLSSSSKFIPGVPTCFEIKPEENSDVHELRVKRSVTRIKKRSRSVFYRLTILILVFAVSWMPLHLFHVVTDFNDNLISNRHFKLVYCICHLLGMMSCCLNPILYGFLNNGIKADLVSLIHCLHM
Experimental: Experiment 2 cAMP production inhibitory activity in CHO cells
After CHO cells expressing human NPY Y5 receptor were incubated in the presence of 2.5 mM isobutylmethylxanthine (SIGMA) at 37° C. for 20 min., the compound of the present invention was added and incubated for 5 min. Then, 50 nM NPY and 10 μM forskolin (SIGMA) were added to the cells and incubated for 30 min. After the reaction was terminated by adding 1N HCl, the amount of cAMP in the supernatant was measured with EIA kit (Amersham LIFE SCIENCE).

human NPY Y5 receptor [2] = target: T1, human NPY Y5 receptor; assay: Affinity for NPY Y5 receptor ([125I] peptide YY binding, CHO cell membranes); settings: inhibition of specific [125I] peptide YY binding, membranes of CHO cells expressing NPY Y5 receptor
Excerpt: Experiment 1 Affinity for NPY Y5 Receptor
cDNA sequence encoding a human NPY Y5 receptor (WO096/16542) was cloned in the expression vector pME18S (Takebe et al. Mol. Cell. Biol. 8, 8957). The obtained expression vector was transfected into a host CHO cells by using a Lipofect AMINE reagent (Trademark, Gibco BRL Co., Ltd.) according to an instruction protocol to obtain the cells that stably express NPY Y5 receptor.
The membranes prepared from the above CHO cells expressing NPY Y5 receptor, the compound of the present invention and 30,000 cpm [^125I] peptide YY (60 pM of final concentration: Amersham) were incubated in the assay buffer (20 mM HEPES-Hanks buffer containing 0.1% bovine serum albumin, pH 7.4) at 25° C. for 2 hours, and then the mixture was filtered with a glassfilter GF/C treated with polyethyleneimine. After the glassfilter was washed with 50 mM Tris-HCl buffer (pH 7.4), the radioactivity on the filter was measured with a gamma counter. The non-specific binding was detected in the presence of 200 nM of peptide YY. The 50% inhibitory concentration of the test compound against the specific peptide YY binding (IC50 value) was calculated (Inui, A. et al. Endocrinology 131, 2090-2096 (1992)).

Compound	IC50 (human NPY Y5 receptor [1]) [nM]	IC50 (human NPY Y5 receptor [2]) [nM]
CCOC(=O)C1CCN(c2ccc(NC(=O)C3CCC(NS(=O)(=O)C(C)(C)C)CC3)cc2)CC1 (stereo not shown) [Compound I-57]	47	4.8
CC(C)S(=O)(=O)NC1CCC(C(=O)Nc2ccc3c(c2)OCO3)CC1 (stereo not shown) [Ia-88]	48	0.62
CC(C)(C)S(=O)(=O)NC1CCC(C(=O)Nc2ccc3ccsc3c2)CC1 (stereo not shown) [Ia-130]	3	0.21
CCCCOc1ccc(NC(=O)C2CCC(NS(=O)(=O)C(C)(C)C)CC2)cc1O (stereo not shown) [Compound I-166]	9.7	0.37
CC(C)(C)S(=O)(=O)NC1CCC(C(=O)Nc2ccc(F)cc2F)CC1 (stereo not shown) [Ia-135]	49	8.2
CN1C(=O)c2ccc(NC(=O)CCCCNS(=O)(=O)C(C)(C)C)cc2C1=O [Ia-91]	150	4
CC(C)(C)S(=O)(=O)NC1CCC(C(=O)Nc2cccc(S(=O)(=O)N3CCCCC3)c2)CC1 (stereo not shown) [Ia-186]	12	0.93
Cc1cc(C(=O)NC(C)C)ccc1NC(=O)C1CCC(NS(=O)(=O)C(C)(C)C)CC1 (stereo not shown) [Ia-201]	74	3.1
CC(C)(C)c1ccc(NC(=O)C2CCC(NS(=O)(=O)C(C)(C)C)CC2)cc1 (stereo not shown) [Ia-13]	3.3	1.5
CCCCOc1ccc(NC(=O)C2CCC(NS(=O)(=O)C(C)(C)C)CC2)c(N)c1 (stereo not shown) [Compound I-172]	36	0.91
CC(C)(C)S(=O)(=O)NC1CCC(C(=O)Nc2ccc(S(=O)(=O)N3CCCCC3)cc2)CC1 (stereo not shown) [Ia-185]	4.4	0.94
CC(C)(C)S(=O)(=O)NC1CCC(C(=O)NCCSCc2c(Cl)cccc2Cl)CC1 (stereo not shown) [Compound I-150]	5.2	0.17
CC(C)(O)c1ccc(NC(=O)C2CCC(NS(=O)(=O)C(C)(C)C)CC2)cc1 (stereo not shown) [Ia-56]	96	2.3
C[C@@H]1CN(c2cccc(NC(=O)C3CCC(NS(=O)(=O)C(C)(C)C)CC3)c2)C[C@H](C)O1 (stereo partly shown) [Ia-4]	15	1.4
CCCCc1ccc(NC(=O)CCCCNS(=O)(=O)C(C)C)cc1 [Compound I-7]	< 10	3
CC(C)(C)S(=O)(=O)NC1CCC(C(=O)Nc2ccc3c(c2)CCC3=O)CC1 (stereo not shown) [Compound I-156]	17	0.81
CC(C)(C)S(=O)(=O)NC1CCN(C(=O)Nc2ccc(C(F)(F)F)cc2)CC1 [Ia-219]	28	2.5
CCC(C)NC(=O)c1ccc(NC(=O)C2CCC(NS(=O)(=O)C(C)(C)C)CC2)cc1 (stereo not shown) [Ia-188]	28	0.75
CC(C)S(=O)(=O)NC1CCC(C(=O)Nc2ccc(OCC3CC3)cc2)CC1 (stereo not shown) [Ia-196]	1.3	0.39

Compound	IC50 (human NPY Y5 receptor [1]) [nM]	IC50 (human NPY Y5 receptor [2]) [nM]
CC(C)(C)S(=O)(=O)NC1CCC(C(=O)Nc2cc(-c3ccco3)[nH]n2)CC1 (stereo not shown) [Compound I-146]	20	2.3
CC(C)(C)S(=O)(=O)NCCCCC(=O)Nc1ccc2c(c1)C(=O)N(c1ccccc1)C2=O [Ia-81]	4.5	2.7
CC(C)(C)S(=O)(=O)NC1CCC(C(=O)Nc2ccc(-c3ccccc3)cc2)CC1 (stereo not shown) [Ia-107]	1.3	0.14
C[C@@H]1CN(c2ccc(NC(=O)C3CCC(NS(=O)(=O)C(C)(C)C)CC3)cc2)C[C@@H](C)O1 (stereo partly shown) [Ia-42]	20	3.6
CCCCc1ccc(NC(=O)c2ccc(NS(=O)(=O)C(C)(C)C)cc2)cc1 [Compound I-102]	14	1.7
COC(=O)CCCc1ccc(NC(=O)C2CCC(NS(=O)(=O)C(C)(C)C)CC2)cc1 (stereo not shown) [Compound I-87]	21	0.66
CC(C)(C)S(=O)(=O)NC1CCC(C(=O)Nc2nnc(-c3ccc(F)cc3)s2)CC1 (stereo not shown) [Compound I-213]	4	0.44
CC(C)(C)S(=O)(=O)NC1CCC(C(=O)Nc2ccc(N3CCC(=O)CC3)cc2)CC1 (stereo not shown) [Ia-52]	22	1.9
CC(C)(C)S(=O)(=O)NC1CCC(C(=O)Nc2ccc3c(c2)OCCO3)CC1 (stereo not shown) [Compound I-202]	67	6.7
CCCc1ccc(NC(=O)C2CCC(NS(=O)(=O)C(C)(C)C)CC2)cc1 (stereo not shown) [Ia-10]	2.7	0.47
CC(C)(C)S(=O)(=O)NC1CCC(C(=O)Nc2cccc(N3CCCS3(=O)=O)c2)CC1 (stereo not shown) [Ia-207]	5.9	0.55
CC(C)(C)S(=O)(=O)NC1CCC(C(=O)Nc2ccc3scnc3c2)CC1 (stereo not shown) [Ia-106]	24	1.9
CC(C)(C)S(=O)(=O)NC1CCC(C(=O)Nc2ccc(-n3cnc(Cl)c3Cl)cc2)CC1 (stereo not shown) [Compound I-62]	16	0.58
CC(C)(C)S(=O)(=O)Nc1ccc(C(=O)Nc2ccc(-c3ccccc3)cc2)cc1 [Ia-158]	1.7	0.71
CC(C)(C)S(=O)(=O)NC1CCC(C(=O)Nc2ccc(N(CCO)CCO)cc2)CC1 (stereo not shown) [Compound I-86]	100	3.4
CCCCc1ccc(C(=O)NCCCCNS(=O)(=O)C(C)(C)C)cc1 [Compound I-20]	21	7
CC(C)(C)S(=O)(=O)NC1CCC(C(=O)Nc2cccc(C(F)(F)F)c2)CC1 (stereo not shown) [Ia-129]	26	1.3
CC(C)S(=O)(=O)N[C@H]1CC[C@H](C(=O)Nc2ccc3c(c2)C(=O)N(c2ccccc2)C3=O)CC1 [Ia-80]	3	0.44
CC(C)NC(=O)c1cccc(NC(=O)C2CCC(NS(=O)(=O)C(C)C)CC2)c1 (stereo not shown) [Ia-192]	200	5.9

Compound	IC50 (human NPY Y5 receptor [1]) [nM]	IC50 (human NPY Y5 receptor [2]) [nM]
CC(C)(C)S(=O)(=O)Nc1ccc(C(=O)Nc2ccc(OC3CCCC3)cc2)cc1 [Ia-212]	2.6	0.52
CC(=O)c1cc2cc(NC(=O)C3CCC(NS(=O)(=O)C(C)(C)C)CC3)ccc2oc1=O (stereo not shown) [Ia-60]	10	0.95
CC(C)(C)S(=O)(=O)NC1CCC(C(=O)Nc2ccc(NS(C)(=O)=O)cc2)CC1 (stereo not shown) [Ia-63]	370	3.9
CC(C)S(=O)(=O)NC1CCC(C(=O)Nc2ccc(OC3CCCC3)cc2)CC1 (stereo not shown) [Ia-198]	2.6	0.23
CC(=O)Nc1cccc(NC(=O)C2CCC(NS(=O)(=O)C(C)(C)C)CC2)c1 (stereo not shown) [Compound I-67]	17	2
CC(C)(C)S(=O)(=O)NC1CCC(C(=O)Nc2ccc(N3CCCS3(=O)=O)cc2)CC1 (stereo not shown) [Ia-208]	9.7	1.2
CC(C)S(=O)(=O)NC1CCN(C(=O)Nc2ccc(C(F)(F)F)cc2)CC1 [Ia-222]	18	3.7
CC(C)S(=O)(=O)NC1CCN(C(=O)Nc2ccc(OC3CCOCC3)cc2)CC1 [Ia-237]	15	1.1
CCCCc1ccc(NC(=O)c2ccc(N[S+]([O-])C(C)(C)C)cc2)cc1 (stereo not shown) [Compound I-101]	38	3.9
CCCCc1ccc(NC(=O)CCCCNS(=O)(=O)C(C)(C)C)cc1 [Compound I-11]	5	1.3
CC(C)(C)S(=O)(=O)NC1CCC(C(=O)Nc2ccc(Cl)cc2)CC1 (stereo not shown) [Ia-14]	28	4.8
CCN(CCNC(=O)C1CCC(NS(=O)(=O)C(C)(C)C)CC1)c1ccccc1 (stereo not shown) [Compound I-149]	15	0.83
COc1ccc(NC(=O)C2CCC(NS(=O)(=O)C(C)(C)C)CC2)cc1F (stereo not shown) [Ia-36]	86	1.6
CC(C)(C)S(=O)(=O)NC1CCC(C(=O)Nc2ccc(-c3cnco3)cc2)CC1 (stereo not shown) [Ia-195]	31	1.4
COCOc1cccc(NC(=O)C2CCC(NS(=O)(=O)C(C)(C)C)CC2)c1 (stereo not shown) [Compound I-162]	32	1.7
CCCCOc1cccc(CONC(=O)C2CCC(NS(=O)(=O)C(C)(C)C)CC2)c1 (stereo not shown) [Compound I-191]	11	1.1
COC(=O)c1scc(NC(=O)C2CCC(NS(=O)(=O)C(C)(C)C)CC2)c1C(=O)OC (stereo not shown) [Compound I-143]	44	3.5
CC(C)(C)S(=O)(=O)NC1CCC(C(=O)Nc2ccc(N3CCN(c4ncccn4)CC3)cc2)CC1 (stereo not shown) [Compound I-55]	40	9
